Experimental data: patent US20250195518A1, “INDAZOLE COMPOUND AND PHARMACEUTICAL USE THEREOF” (Japan Tobacco Inc., priority 2022, published 2025)

Experiments:
human H-PGDS [1] = target: T1, human H-PGDS (Homo sapiens (Human), UniProt O60760); test: Human H-PGDS binding inhibitory activity (AlphaLISA antagonistic assay); settings: His-tagged human H-PGDS 0.3 nmol/L, biotinylated H-PGDS inhibitor 45 nmol/L
Description: Experimental Example 1: Measurement of Human H-PGDS Binding Inhibitory Activity
The H-PGDS binding inhibitory activity of the test compound was measured by AlphaLISA antagonistic assay. A specific protocol is as follows.
In an AlphaPlate-384 Shallow well plate (Cat. 6008350, PerkinElmer) were added and mixed 240 nL/well of DMSO solution as a compound solution or a solvent control, 3 µL/well (final concentration: 45 nmol/L) of biotinylated H-PGDS inhibitor (see below for the production method) diluted with […] DMSO-containing Assay Buffer (50 mM HEPES-NaOH (pH 7.5), 2 mM GSH, 150 mM NaCl, 2 mM MgCl2, 0.005% Surfactant P20), and 2 μL/well (final concentration: 0.3 nmol/L) of His-tagged human H-PGDS (Cat. ATGP1557, ATgen) diluted with Assay Buffer. As a blank, 2 μL/well of Assay Buffer was added instead of His-tagged human H-PGDS. This plate was allowed to stand at room temperature for 60 min, and Nickel Chelate AlphaLISA Acceptor Beads (Cat. AL108C, Perkin Elmer) at 5 μL/well (final concentration: 20 μg/mL) were added and mixed. After allowing to stand at room temperature for 30 min under shading, AlphaScreen Streptavidin donor beads (Cat. 6760002S, Perkin Elmer) were added at 5 μL/well (final concentration: 30 μg/mL) and mixed. After allowing to stand at room temperature for 60 min under shading, AlphaLISA signals (excitation wavelength: 680 nm, measurement wavelength: 615 nm) were measured using Enspire (Perkin Elmer).
The H-PGDS binding inhibitory activity (inhibitory rate) of each test compound was calculated as follows, and the IC50 value was calculated from the inhibitory rate at two concentrations sandwiching 50%.

human H-PGDS [2] = target: T1, human H-PGDS; test: Human H-PGDS inhibitory activity (enzyme reaction with PGH2, PGD2 ELISA); assay type: biochemical; settings: human recombinant H-PGDS 1.6 μg/mL, PGH2 50 μmol/L
Description: Using the human H-PGDS expression plasmid DNA (pET28b/hH-PGDS) as a template, PCR (Polymerase Chain Reaction) was performed to amplify a DNA fragment containing human H-PGDS with a NotI recognition cleavage sequence immediately before the translation initiation codon and a BamHI recognition cleavage sequence immediately below the translation end codon. The purified DNA fragment was fused to pET15b (manufactured by Merck KGaA, model number 69661) digested with NotI and BamHI, by using In-Fusion HD Cloning Kit (manufactured by Takara Bio Inc., model number 639649). […] The base sequence of human H-PGDS cloned into the vector was determined by the Dye Terminator method using BigDye Terminator v3.1 Cycle Sequencing Kit (manufactured by Applied Biosystems, model number 4337456). The determined sequence was identical to the sequence of the protein translation region of human H-PGDS (Accession number su NM_014485.2) registered in the NCBI Reference Database. […]
The protein concentration of the human H-PGDS purified fraction was measured with Pierce 660 nm Protein Assay Reagent (manufactured by Thermo Fisher Scientific Inc., model number 22660). […] Human H-PGDS was detected by Western blotting using a rabbit anti-H-PGDS polyclonal antibody (manufactured by LifeSpan BioSciences, Inc, model number LS-B6886). […]

mdx mice = settings: Non-patent Document 7; cited from earlier work

T1 sequence (O60760 whole entry): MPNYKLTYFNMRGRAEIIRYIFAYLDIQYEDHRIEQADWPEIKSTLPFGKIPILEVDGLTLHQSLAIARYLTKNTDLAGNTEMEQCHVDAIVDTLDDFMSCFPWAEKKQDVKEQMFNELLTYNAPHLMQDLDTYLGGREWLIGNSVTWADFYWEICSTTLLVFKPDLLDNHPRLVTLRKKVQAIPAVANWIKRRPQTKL

| SMILES | IC50 (human H-PGDS [1]) [nM] | further results |
| --- | --- | --- |
| Cc1nn(-c2ncc(C(=O)N[C@H]3CC[C@H](C(C)(C)O)CC3)cn2)c2cc(F)ccc12 [Example 1, 2-(6-fluoro-3-methyl-1H-indazol-1-yl)-N-(trans-4-(2-hydroxypropan-2-yl)cyclohexyl)pyrimidine-5-carboxamide] | 3 | – |
| CC(C)(O)[C@H]1CC[C@H](NC(=O)c2cnc(-n3nc(C(F)(F)F)c4ccccc43)nc2)CC1 [Example 46] | 10 | – |
| COc1nn(-c2ncc(C(=O)N[C@H]3CC[C@H](O)CC3)cn2)c2ccccc12 [Example 27] | 225 | – |
| Cc1nn(-c2ncc(C(=O)N[C@H]3CC[C@H](C(C)(C)O)CC3)cn2)c2c(C#N)cccc12 [Example 95] | 144 | – |
| C[C@@H](CC(=O)O)C12CCC(NC(=O)N3CCC(c4ncc(F)c5[nH]cc(F)c45)CC3)(CC1)CC2 (single isomer, unassigned) [enantiomer A] | – | IC50 (human H-PGDS [2]): 5 nM |
| CC(C)(O)[C@H]1CC[C@H](NC(=O)c2cnc(-n3nc(Cl)c4ccccc43)nc2)CC1 [Example 24] | 3 | – |
| Cc1nn(-c2ccc(C(=O)N[C@H]3CC[C@H](O)CC3)cn2)c2c(F)cccc12 [Example 41] | 374 | – |
| CS(=O)(=O)CCCO[C@H]1CC[C@H](NC(=O)c2cnc(-n3nc(C(F)F)c4ccccc43)nc2)CC1 [Example 6, 2-(3-(difluoromethyl)-1H-indazol-1-yl)-N-(trans-4-(3-(methylsulfonyl)propoxy)cyclohexyl)pyrimidine-5-carboxamide] | 3 | – |
| Cc1nn(-c2ncc(C(=O)N[C@H]3CC[C@H](CC(C)(C)O)CC3)cn2)c2cnccc12 [Example 3, N-(Trans-4-(2-hydroxy-2-methylpropyl)cyclohexyl)-2-(3-methyl-1H-pyrazolo[3,4-c]pyridin-1-yl)pyrimidine-5-carboxamide] | 21 | – |
| Cc1nn(-c2ncc(C(=O)N[C@H]3CC[C@H](O)CC3)cc2F)c2ccccc12 [Example 54] | 41 | – |
| CC(C)(O)[C@H]1CC[C@H](NC(=O)c2cnc(-n3nc(C(F)F)c4ccncc43)nc2)CC1 [Example 9, 2-(3-(difluoromethyl)-1H-pyrazolo[3,4-c]pyridin-1-yl)-N-(trans-4-(2-hydroxypropan-2-yl)cyclohexyl)pyrimidine-5-carboxamide] | 13 | – |
| Cc1nn(-c2ncc(C(=O)NC34CC(C(C)(C)O)(C3)C4)cn2)c2cc(F)ccc12 [Example 7, 2-(6-fluoro-3-methyl-1H-indazol-1-yl)-N-(3-(2-hydroxypropan-2-yl)bicyclo[1.1.1]pentan-1-yl)pyrimidine-5-carboxamide] | 11 | – |
| CC(C)(O)C12CC(NC(=O)c3cnc(-n4nc(C(F)F)c5ccccc54)nc3)(C1)C2 [Example 255] | 7 | – |
| Cc1nn(-c2ccc(C(=O)N[C@H]3CC[C@H](C(C)(C)O)CC3)cn2)c2cc(F)ccc12 [Example 40] | 7 | – |
| Cc1nc([C@H]2CC[C@H](NC(=O)c3cnc(-n4nc(C)c5ccc(F)cc54)nc3)CC2)no1 [Example 150] | 14 | – |
| C[C@H](CC(=O)O)C12CCC(NC(=O)N3CCC(c4ncc(F)c5[nH]cc(F)c45)CC3)(CC1)CC2 (single isomer, unassigned) [enantiomer B] | – | IC50 (human H-PGDS [2]): 6 nM |
| Cc1nn(-c2ccc(C(=O)N[C@H]3CC[C@H](C(C)(C)O)CC3)cn2)c2ccccc12 [Example 15] | 12 | – |
| CC(C)(O)C(=O)N1CCC(NC(=O)c2cnc(-n3nc(C(F)F)c4ccc(F)cc43)nc2)CC1 [Example 254] | 14 | – |
| Cc1nn(-c2ccc(C(=O)NC3CCCCC3)cc2)c2ccccc12 [Example 11] | 171 | – |
| Cc1nn(-c2ncc(C(=O)N[C@H]3CC[C@H](O)CC3)cn2)c2ccccc12 [Example 18] | 45 | – |
| Cc1nn(-c2ccc(C(=O)N[C@H]3CC[C@H](C(C)(C)O)CC3)cn2)c2cccc(F)c12 [Example 50] | 74 | – |
| Cc1nn(-c2ncc(C(=O)N[C@H]3CC[C@@](C)(O)CC3)cn2)c2cc(F)ccc12 [Example 204] | 14 | – |
| Cc1nn(-c2ccc(C(=O)N[C@H]3CC[C@H](OC4CCS(=O)(=O)CC4)CC3)cn2)c2cc(F)ccc12 [Example 80] | 17 | – |
| Cc1nn(-c2ncc(C(=O)N[C@H]3CC[C@H](OCC(C)(C)O)CC3)cn2)c2ccccc12 [Example 4, N-(trans-4-(2-hydroxy-2-methylpropoxy)cyclohexyl)-2-(3-methyl-1H-indazol-1-yl)pyrimidine-5-carboxamide] | 5 | – |
| CC(C)(O)[C@H]1CC[C@H](NC(=O)c2ccc(-n3nc(Cl)c4ccccc43)nc2)CC1 [Example 17] | 27 | – |
| Cc1nn(-c2ncc(C(=O)N[C@H]3CC[C@H](O)CC3)cn2)c2cccc(F)c12 [Example 42] | 200 | – |
| Cc1nn(-c2ccc(C(=O)N[C@H]3CC[C@H](O)CC3)cn2)c2cc(F)ccc12 [Example 39] | 71 | – |
| c1ccc(C(OC2CCN(CCCc3nn[nH]n3)CC2)c2ccccc2)cc1 [HQL-79] | – | muscle strength (mdx mice): increases muscle strength; myonecrosis (mdx mice): suppresses myonecrosis |
